The target of one series is T1, PXR (Homo sapiens, UniProt O75469).
T1 sequence (O75469 1-434): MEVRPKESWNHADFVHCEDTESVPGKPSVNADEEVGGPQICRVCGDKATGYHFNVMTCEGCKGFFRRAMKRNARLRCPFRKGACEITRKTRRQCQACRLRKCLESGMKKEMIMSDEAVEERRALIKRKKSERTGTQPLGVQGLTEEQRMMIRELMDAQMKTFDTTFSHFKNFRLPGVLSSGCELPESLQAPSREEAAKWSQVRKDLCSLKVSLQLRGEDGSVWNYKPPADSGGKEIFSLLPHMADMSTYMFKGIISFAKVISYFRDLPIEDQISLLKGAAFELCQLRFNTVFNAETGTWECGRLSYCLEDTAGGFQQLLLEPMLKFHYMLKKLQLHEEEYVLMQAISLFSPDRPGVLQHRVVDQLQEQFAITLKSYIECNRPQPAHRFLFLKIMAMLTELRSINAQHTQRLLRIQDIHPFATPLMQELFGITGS
The series can be described thus: PXR-responsive CYP3A4 promoter luciferase reporter assay in HepG2, inverse agonist mode (basal activity). The format is cell-based. To be noted: for PXR inverse agonism: decrease of basal activity in %: tested at 10 μM, DMSO (0.1%) = 100% basal activity. Set-up: expressed in transfected cells; host or cells: HepG2. The protocol: Rhesus monkey, mouse, and rat PXR expression vectors (100 ng/well each) were also obtained from GenScript. […] Carlberg (University of Kuopio, Kuopio, Finland).
The cells were cultured in DMEM medium (Merck) supplemented with 10% fetal bovine serum.
Background: A reporter such as luciferase makes a cellular process visible.

Series [1] in a line: Plasma stability, human plasma. The format is in vitro ADME. To be noted: up to 120 min, read-out: Plasma stability, t1/2 (min), human.
In the next series the target is T2, LXRα (Homo sapiens, UniProt Q13133).
T2 construct: expressed in transfected cells
T2 sequence (Q13133 209-447 limits assumed): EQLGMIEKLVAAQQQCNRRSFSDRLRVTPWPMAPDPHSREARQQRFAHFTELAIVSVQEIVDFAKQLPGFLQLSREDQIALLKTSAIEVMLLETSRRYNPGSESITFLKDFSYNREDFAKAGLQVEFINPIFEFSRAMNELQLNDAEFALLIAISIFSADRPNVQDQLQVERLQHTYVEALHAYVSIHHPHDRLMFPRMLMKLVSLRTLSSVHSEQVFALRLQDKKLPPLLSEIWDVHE
As to the kind of experiment: LXRα luciferase reporter assay, agonistic and antagonistic setups. The format is cell-based. As to conditions: prototype ligand GW3965. The protocol:
(§1) For the farnesoid X receptor (FXR) luciferase gene reporter assay, the full-length expression vector was paired with pFXRE-luc luciferase construct. The p1A1-luc construct was used in the aryl hydrocarbon receptor (AhR) assays with pRL-TK for normalization. Gal4-LXR-α/β, and Gal4-PPAR-γ constructs were used with the pGAL4 UAS-luc construct. For the VDR assay, expression vector pSG5-hVDR together with pVDRE-luc constructs was used. Firefly and Renilla luciferase activities were analyzed using a Dual reporter assay (Promega). For the nuclear receptor assays, prototype ligands were used at the following concentrations: Calcitriol for VDR (100 nM), GW3965 for LXRα and LXRβ (10 μM), 6-OCA for FXR (1 μM), fenofibrate for PPARα (10 μM), estradiol for ERα and β (10 μM), rosiglitazone for PPARγ (10 μM), 3-MC for AhR (5 μM), and TCPOBOP for mCAR (10 μM). Detailed descriptions and protocols are detailed in our recent publication. ,

In a further series the target is T3, vitamin D receptor (VDR) (Homo sapiens, UniProt P11473).
T3 construct: expressed in transfected cells
T3 sequence (P11473 whole entry): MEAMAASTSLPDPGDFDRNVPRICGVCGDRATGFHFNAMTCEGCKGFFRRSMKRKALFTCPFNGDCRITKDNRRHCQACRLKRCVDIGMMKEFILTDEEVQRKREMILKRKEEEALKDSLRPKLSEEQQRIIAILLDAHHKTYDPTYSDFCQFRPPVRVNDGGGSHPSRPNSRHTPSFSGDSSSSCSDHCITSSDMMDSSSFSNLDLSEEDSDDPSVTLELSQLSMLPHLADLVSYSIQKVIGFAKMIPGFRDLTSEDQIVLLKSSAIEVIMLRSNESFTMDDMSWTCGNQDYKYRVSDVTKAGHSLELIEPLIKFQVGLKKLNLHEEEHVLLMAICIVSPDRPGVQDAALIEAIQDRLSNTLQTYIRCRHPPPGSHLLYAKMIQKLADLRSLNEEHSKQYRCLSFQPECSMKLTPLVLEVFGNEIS
As to the kind of experiment: VDR luciferase reporter assay, agonistic and antagonistic setups. As to conditions: prototype ligand calcitriol. The format is cell-based. The protocol: as §1

For a further series, the target named is T4, PKBα(h) (Homo sapiens, UniProt P31749).
T4 construct: purchased Eurofins (Millipore) KinaseProfiler, inferred from the naming style
T4 sequence (P31749 whole entry): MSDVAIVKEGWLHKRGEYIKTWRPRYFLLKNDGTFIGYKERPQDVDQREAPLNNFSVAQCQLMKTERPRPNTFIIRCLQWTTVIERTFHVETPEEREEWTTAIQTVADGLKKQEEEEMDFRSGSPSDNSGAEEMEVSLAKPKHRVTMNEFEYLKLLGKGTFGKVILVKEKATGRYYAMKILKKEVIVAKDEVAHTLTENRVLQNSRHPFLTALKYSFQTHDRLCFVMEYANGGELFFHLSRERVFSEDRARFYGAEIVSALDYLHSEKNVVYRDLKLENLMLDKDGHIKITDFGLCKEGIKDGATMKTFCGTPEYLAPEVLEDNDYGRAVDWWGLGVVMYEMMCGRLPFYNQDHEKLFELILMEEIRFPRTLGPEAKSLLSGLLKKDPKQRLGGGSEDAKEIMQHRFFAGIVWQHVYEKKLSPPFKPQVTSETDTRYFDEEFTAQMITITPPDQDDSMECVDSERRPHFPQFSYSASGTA
As to the kind of experiment: Off-target kinase panel. The format is biochemical. As to conditions: MI891 @ 1 µM. On the procedure: (§2) To evaluate the selectivity of MI891, an off-target profiling study was performed using a panel of 58 kinases.

The next series deals with T5, PKCα(h) (Homo sapiens, UniProt P17252).
T5 construct: purchased Eurofins (Millipore) KinaseProfiler, inferred from the naming style
As to the kind of experiment: Off-target kinase panel. In kind it is biochemical. As to conditions: MI891 @ 1 µM. On the procedure:
as §2

The next series concerns the target CK2α2(h) (Homo sapiens, UniProt P19784). As to the kind of experiment: Off-target kinase panel. To be noted: MI891 @ 1 µM. In kind it is biochemical. The protocol:
as §2

Another series deals with T6, MAPKAP-K2(h) (Homo sapiens, UniProt P49137).
T6 construct: purchased Eurofins (Millipore) KinaseProfiler, inferred from the naming style
T6 sequence (P49137 whole entry): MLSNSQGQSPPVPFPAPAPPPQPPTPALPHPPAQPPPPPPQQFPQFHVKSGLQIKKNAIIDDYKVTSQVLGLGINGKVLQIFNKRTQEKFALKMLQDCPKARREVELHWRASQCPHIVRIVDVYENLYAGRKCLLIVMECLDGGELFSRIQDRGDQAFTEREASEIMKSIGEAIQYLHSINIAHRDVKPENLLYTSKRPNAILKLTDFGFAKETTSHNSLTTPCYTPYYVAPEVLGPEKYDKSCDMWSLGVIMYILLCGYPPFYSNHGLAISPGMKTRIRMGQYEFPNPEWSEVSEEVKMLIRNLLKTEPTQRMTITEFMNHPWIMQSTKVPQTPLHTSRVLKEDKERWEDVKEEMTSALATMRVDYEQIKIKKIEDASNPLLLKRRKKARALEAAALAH
The series can be described thus: Off-target kinase panel. In kind it is biochemical. As to conditions: MI891 @ 1 µM. The protocol:
as §2

The target of a further series is T7, MLK1(h) (Homo sapiens, UniProt P80192).
T7 construct: purchased Eurofins (Millipore) KinaseProfiler, inferred from the naming style
T7 sequence (P80192 whole entry): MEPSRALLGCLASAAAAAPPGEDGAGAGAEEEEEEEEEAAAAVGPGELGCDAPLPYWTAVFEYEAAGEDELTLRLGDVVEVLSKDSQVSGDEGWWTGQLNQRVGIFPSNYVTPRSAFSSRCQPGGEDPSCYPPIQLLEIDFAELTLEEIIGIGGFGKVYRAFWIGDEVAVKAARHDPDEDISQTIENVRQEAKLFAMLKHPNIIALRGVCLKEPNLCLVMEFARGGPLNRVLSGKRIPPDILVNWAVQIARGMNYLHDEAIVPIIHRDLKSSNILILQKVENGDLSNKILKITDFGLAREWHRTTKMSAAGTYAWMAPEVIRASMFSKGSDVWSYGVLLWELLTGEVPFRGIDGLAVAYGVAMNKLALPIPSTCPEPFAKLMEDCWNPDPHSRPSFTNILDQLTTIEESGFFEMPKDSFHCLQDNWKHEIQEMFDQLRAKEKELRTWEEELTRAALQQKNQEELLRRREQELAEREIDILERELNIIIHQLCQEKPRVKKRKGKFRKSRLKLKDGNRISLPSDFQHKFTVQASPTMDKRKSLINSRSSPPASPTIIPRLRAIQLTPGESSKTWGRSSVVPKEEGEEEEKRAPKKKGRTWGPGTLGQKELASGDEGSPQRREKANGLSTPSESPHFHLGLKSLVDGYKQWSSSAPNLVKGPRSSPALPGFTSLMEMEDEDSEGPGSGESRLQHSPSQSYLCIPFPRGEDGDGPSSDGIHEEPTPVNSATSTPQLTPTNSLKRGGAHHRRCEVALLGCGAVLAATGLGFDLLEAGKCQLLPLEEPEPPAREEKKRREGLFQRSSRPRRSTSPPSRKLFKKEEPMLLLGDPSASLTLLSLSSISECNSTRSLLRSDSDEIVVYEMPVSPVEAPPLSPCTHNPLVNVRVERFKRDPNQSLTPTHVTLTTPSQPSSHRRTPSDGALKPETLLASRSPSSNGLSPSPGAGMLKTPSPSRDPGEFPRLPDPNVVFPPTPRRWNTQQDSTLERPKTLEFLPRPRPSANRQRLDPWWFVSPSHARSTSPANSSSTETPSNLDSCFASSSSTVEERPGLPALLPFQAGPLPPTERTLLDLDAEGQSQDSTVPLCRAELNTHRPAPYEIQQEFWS
The series can be described thus: Off-target kinase panel. In kind it is biochemical. To be noted: MI891 @ 1 µM. On the procedure:
as §2

The target of another series is T8, GSPT1 (Homo sapiens, UniProt P15170).
T8 construct: GSPT1 protein expression in HepaRG cells treated with different concentrations of MI1013 and MI1155 for 24 h; endogenous in cells; host or cells: HepaRG
T8 sequence (Q96SW2 whole entry partner): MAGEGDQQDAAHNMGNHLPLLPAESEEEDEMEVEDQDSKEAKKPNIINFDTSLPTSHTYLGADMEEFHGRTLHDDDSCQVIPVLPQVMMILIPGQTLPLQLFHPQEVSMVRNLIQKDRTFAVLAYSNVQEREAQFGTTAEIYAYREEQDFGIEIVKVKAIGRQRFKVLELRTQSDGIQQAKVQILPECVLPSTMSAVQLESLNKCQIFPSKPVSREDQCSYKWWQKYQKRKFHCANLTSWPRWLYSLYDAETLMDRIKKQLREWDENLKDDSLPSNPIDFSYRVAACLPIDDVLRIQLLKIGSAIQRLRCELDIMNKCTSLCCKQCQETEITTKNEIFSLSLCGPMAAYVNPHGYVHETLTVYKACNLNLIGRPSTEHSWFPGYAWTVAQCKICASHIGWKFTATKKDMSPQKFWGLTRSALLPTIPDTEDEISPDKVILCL
T8 sequence (P15170 whole entry): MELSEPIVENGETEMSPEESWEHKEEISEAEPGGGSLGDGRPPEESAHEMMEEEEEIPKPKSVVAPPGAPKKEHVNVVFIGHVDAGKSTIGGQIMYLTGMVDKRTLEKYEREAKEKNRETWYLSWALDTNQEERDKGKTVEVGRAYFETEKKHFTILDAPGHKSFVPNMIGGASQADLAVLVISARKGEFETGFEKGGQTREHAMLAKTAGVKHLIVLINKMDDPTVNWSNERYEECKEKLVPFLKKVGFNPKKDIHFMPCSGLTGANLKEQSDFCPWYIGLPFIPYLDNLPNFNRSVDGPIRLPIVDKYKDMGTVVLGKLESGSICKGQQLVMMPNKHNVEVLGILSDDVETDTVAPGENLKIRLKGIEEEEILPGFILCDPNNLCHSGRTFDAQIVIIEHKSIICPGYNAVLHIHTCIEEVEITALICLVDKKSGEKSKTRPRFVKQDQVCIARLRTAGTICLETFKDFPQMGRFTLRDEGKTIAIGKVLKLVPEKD
The series can be described thus: Western blot of GSPT1 in HepaRG cells. The format is cell-based. To be noted: 24 h. On the procedure:
The harvested HepaRG cells were lysed in RIPA lysis buffer (Cat. no 89900, Thermo Scientific) containing Halt protease inhibitor cocktail inhibitors (Thermo Scientific). Protein concentration was measured using the Pierce BCA Protein Assay Kit (Cat. no. 23225, Thermo Scientific), samples were diluted in 4 × Laemmli sample buffer (Cat. no. 1610747, BioRad) supplemented with mercaptoethanol and heated at 95 °C for 5 min. Equal amounts of protein were loaded in 4–20% Mini-PROTEAN TGX Stain-Free Protein Gels (12 well. cat. no. 4561095 or 15 well, cat. no. 4568096, Bio-Rad), electrophorised, and transferred onto Trans-Blot Turbo Midi-size PVDF Membrane (cat. no. 1704273, Bio-Rad), and blocked with EveryBlot Blocking buffer for 10 min (cat. no. 12010020, Bio-Rad). […] Chemiluminescence signals were detected using SuperSignal West Femto Maximum Sensitivity Substrate (cat. no. 34096, Thermo Scientific) and visualized by the ChemiDoc MP Imaging system (Universal Hood III, #731BR02821, Bio-Rad), and the bands were quantified using β-actin (1:2000, recombinant rabbit conjugated monoclonal antibody (JF53-10), cat. no. MA5-32540, Invitrogen) as loading control with ImageJ (version 1.54g) software.

Bounds are passed on as bounds.

Sequence of CK2α2(h) (P19784 whole entry): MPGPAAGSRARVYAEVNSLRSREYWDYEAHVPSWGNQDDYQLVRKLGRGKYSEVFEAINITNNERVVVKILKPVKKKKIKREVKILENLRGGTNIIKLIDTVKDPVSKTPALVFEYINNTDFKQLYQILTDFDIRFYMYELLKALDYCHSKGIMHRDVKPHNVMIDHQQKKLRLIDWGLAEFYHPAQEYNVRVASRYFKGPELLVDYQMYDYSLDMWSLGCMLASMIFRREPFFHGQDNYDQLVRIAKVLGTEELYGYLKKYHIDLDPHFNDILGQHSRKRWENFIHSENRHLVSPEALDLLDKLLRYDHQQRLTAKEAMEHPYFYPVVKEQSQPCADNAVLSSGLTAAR

The term inhibition denotes how much of the control response was suppressed. The IC50 is the point on the concentration scale where inhibition reaches its midpoint. With `NC(=O)c1cc(Cn2cc(-c3c(-c4ccc(Cl)cc4)nc4c(F)cc(F)cn34)nn2)ccc1Cl` [Compound 11, 2-Chloro-5-((4-(2-(4-chlorophenyl)-6,8-difluoroimidazo[1,2-a]pyridin-3-yl)-1H-1,2,3-triazol-1-yl)methyl)-benzamide], the inhibition at 10 µM at PXR (HepG2, at 10 μM, read-out: maximal inhibition (inverse agonism)) came out at 68.8 ± 5.5%. Also, at PXR (compound alone, HepG2, read-out: IC50, inverse agonistic activity), the half-maximal inhibitory concentration (IC50) was determined as 6.1 µM. In addition, the entries for the “PXR inverse agonism: decrease of basal activity in %” value on PXR and on PXR (listed as 11 (MI891)) were “(-68.84±5.53) %” and “–68.84 ± 5.53%”, respectively. Further, the half-life in [1] was above 120 min. Moreover, on LXRα, the “agonistic or antagonistic activity on LXRα” value is listed as “no significant agonistic or antagonistic activities”. For the same compound, at vitamin D receptor (VDR), the “agonistic or antagonistic activity on VDR” value is listed as “no significant agonistic or antagonistic activities”. For the same compound, the activity at 1 µM at PKBα(h) stood at 100%; at PKCα(h), 97%; on CK2α2(h), 109%; on MAPKAP-K2(h) it was 101%; at MLK1(h), 104%.

Consider “N-(4-((1-(2,5-dimethoxyphenyl)-5-methyl-1H-1,2,3-triazol-4-yl)sulfonyl)phenyl)-3-(2-(2-(2-(4-(((2-(2,6-dioxopiperidin-3-yl)-1,3-dioxoisoindolin-4-yl)amino)methyl)-1H-1,2,3-triazol-1-yl)ethoxy)ethoxy)ethoxy)propenamide [Compound 36]”, for which, on GSPT1, the GSPT1 degradation result is on record as “does not degrade”.

These data come from paper PMC12305494, “Discovery of PXR Antagonist MI891 and PXR Degrader MI1013 and Their Roles in Hepatic Gene Regulation” (Journal of Medicinal Chemistry, 2025).
